Patent EP4417602A1, “SUBSTITUTED PYRAZOLE CARBOXAMIDES, SALTS THEREOF AND THEIR USE AS HERBICIDALLY ACTIVE SUBSTANCES” (Bayer AG, priority 2023, dated 2024)

Legend:
ECHCG [1] = test: C. Herbicidal pre-emergence action, weed and crop plants (Tables C); format: in vivo, Echinochloa crus-galli
Source text: (§1) Seeds of mono- and dicotyledonous weed plants and crop plants were sown, in plastic or organic planting pots, in sandy loam and covered with soil. The compounds according to the invention, formulated in the form of wettable powders (WP) or as emulsifiable concentrates (EC), were applied to the surface of the covering soil as aqueous suspension or emulsion, with the addition of 0.5% of an additive, at an application rate of 6001 of water/ha (converted). Following treatment, the pots were placed in a greenhouse and kept under optimum growth conditions for the test plants. The visual grading of the damage to the test plants was carried out after ca. 3 weeks in comparison to untreated controls (herbicidal effect in percent (%): 100% effect = plants have died off, 0% effect = as control plants). Tables C1 to C12 below show the effects of selected compounds of the general formula (I) according to table 1 on various harmful plants and an application rate corresponding to 320 g/ha or below obtained by the experimental procedure mentioned above. Table C1: pre-emergence activity at 320g/ha against KCHSC in %

SETVI = test: as above; format: in vivo, Setaria viridis; conditions: application rate 320 g/ha; Table C10
Source text: as §1

ALOMY = test: A. Herbicidal pre-emergence action on harmful plants (Tables A); format: in vivo, Alopecurus myosuroides
Summary of the method: (§2)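 Values are visual percent damage relative to untreated controls, scored ca. 3 weeks after the compound was sprayed on the covering soil of sown pots (sandy loam) at rates up to 1280 g/ha, formulated as WP or EC with 0.5% additive.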

DIGSA [2] = test: as above; format: in vivo, Digitaria sanguinalis
Summary of the method: as §2

BRSNW [3] = test: F. Post-emergence effects on crop plants (Tables F); format: in vivo, Brassica napus; conditions: crop plant
Summary of the method: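 Plants were grown in sandy loam in a greenhouse and sprayed post-emergence at the single-leaf stage, 2–3 weeks after sowing. Visual damage was scored after ca. 3 weeks against untreated controls (0% = as control, 100% = dead).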

GLXMA = test: D. Pre-emergence effects on crop plants (Tables D); format: in vivo, Glycine max; conditions: crop plant
Summary of the method: (§3)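 Seeds sown in sandy loam and covered; WP or EC formulations sprayed onto the soil surface as aqueous suspension/emulsion with 0.5% additive, at 320 g/ha or below. Greenhouse-grown; visual damage scored after ca. 3 weeks against untreated controls (0% = as control, 100% = plants dead).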

LOLRI = test: A. Herbicidal pre-emergence action on harmful plants (Tables A); format: in vivo, Lolium rigidum; conditions: visual grading after ca. 3 weeks vs untreated controls, 100% = plants have died off, 0% = as control plants
Summary of the method: as §2

ECHCG [4] = test: B. Herbicidal post-emergence action on harmful plants (Tables B); format: in vivo, Echinochloa crus-galli
Summary of the method: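 Greenhouse weeds grown in sandy loam were sprayed post-emergence at the one-leaf stage, 2-3 weeks after sowing. Compounds were applied as WP or EC in water with 0.5% additive at 600 L/ha, at 1280 g/ha or below. Visual damage was rated after about 3 weeks versus untreated plants (0-100%).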

DIGSA [5] = test: C. Herbicidal pre-emergence action, weed and crop plants (Tables C); format: in vivo, Digitaria sanguinalis
Source text: as §1

BRSNW [6] = test: D. Pre-emergence effects on crop plants (Tables D); format: in vivo, Brassica napus; conditions: crop plant
Summary of the method: as §3

[7] = application rate 320 g/ha, Table C6a
[8] = application rate 1280 g/ha, Table A9a
[9] = application rate 320 g/ha, Table A12b
[10] = application rate 1280 g/ha, Table A12a
[11] = application rate 80 g/ha, Table D4b
[12] = application rate 320 g/ha, Table D4a
[13] = application rate 1280 g/ha, Table B2a
[14] = application rate 80 g/ha, Table C5b
[15] = application rate 320 g/ha, Table C5a
[16] = application rate 80 g/ha, Table C6b
[17] = application rate 320 g/ha, Table B2b
[18] = application rate 320 g/ha, Table A9b
[19] = application rate 80 g/ha, Table A12c

Row | SMILES | pre-emergence activity against ECHCG (ECHCG [1]; [7]) [%] | pre-emergence activity against SETVI (SETVI) [%] | pre-emergence activity against ALOMY (ALOMY; [8]) [%] | pre-emergence activity against DIGSA (DIGSA [2]; [9]) [%] | pre-emergence activity against DIGSA (DIGSA [2]; [10]) [%] | post-emergence activity against BRSNW in % (BRSNW [3]; application rate 320 g/ha) [%] | pre-emergence activity against GLXMA (GLXMA; [11]) [%] | pre-emergence activity against GLXMA (GLXMA; [12]) [%] | pre-emergence activity against LOLRI (LOLRI; application rate 320 g/ha) [%] | pre-emergence activity against LOLRI (LOLRI; application rate 1280 g/ha) [%] | post-emergence activity against ECHCG (ECHCG [4]; [13]) [%] | pre-emergence activity against DIGSA (DIGSA [5]; [14]) [%] | pre-emergence activity against DIGSA (DIGSA [5]; [15]) [%] | pre-emergence activity against BRSNW in % (BRSNW [6]; application rate 80 g/ha) [%] | pre-emergence activity against BRSNW in % (BRSNW [6]; application rate 320 g/ha) [%] | pre-emergence activity against ECHCG (ECHCG [1]; [16]) [%] | pre-emergence activity against ALOMY (ALOMY; [18]) [%] | other results
1 | C=C(c1ccccc1F)C1CCCN1C(=O)c1cn(C)nc1COC (racemic) [Example I-023] | 90 | 90 | 90 | 90 | 90 | 0 | 0 | 0 | 100 | 100 | 90 | 90 | 100 | 0 | 0 |  |  | 
2 | COCc1nn(C)cc1C(=O)N1CCCC1Cc1ccccc1F (racemic) [Example I-002] | 90 | 80 |  |  |  |  |  |  | 90 | 100 | 90 | 90 | 90 | 0 | 0 |  |  | post-emergence activity against BRSNW in % (BRSNW [3]; application rate 80 g/ha): 10%; pre-emergence activity against LOLRI (LOLRI; application rate 80 g/ha): 90%
3 | COCc1c(C(=O)N2CCCC2Cc2ccccc2Cl)cnn1C (racemic) [Example I-170] | 90 |  | 90 |  |  | 0 |  | 0 | 90 | 90 | 90 |  |  | 0 | 0 | 90 |  | post-emergence activity against ECHCG (ECHCG [4]; [17]): 90%
4 | COCc1nn(C)cc1C(=O)N1CCCC1C(O)c1ccccc1F (single isomer, unassigned) [Example I-053] | 100 | 90 |  | 90 | 90 | 20 | 0 | 10 | 90 | 90 | 90 | 80 | 90 | 10 |  | 90 |  | 
5 | COCc1nn2c(c1C(=O)N1CCCC1Cc1ccccc1F)CCC2 (racemic) [Example I-022] | 90 |  | 90 | 90 | 90 | 0 | 0 | 0 | 100 | 100 |  |  | 90 | 0 | 0 |  | 90 | 
6 | Cn1cc(C(=O)N2CCCC2Cc2ccc(F)cc2F)c(COc2ccccc2)n1 (racemic) [Example I-008] | 90 | 90 | 100 | 90 | 100 | 10 | 20 |  |  |  |  |  | 90 | 0 | 10 |  | 100 | 
7 | COCc1nn(C)cc1C(=O)N1CCCC1Cc1ccccc1F (single isomer, unassigned) [Example I-003] | 90 | 80 | 100 | 100 | 100 | 0 |  |  | 100 | 100 | 90 |  |  | 0 | 0 | 90 | 100 | pre-emergence activity against DIGSA (DIGSA [2]; [19]): 100%; pre-emergence activity against LOLRI (LOLRI; application rate 80 g/ha): 100%; post-emergence activity against ECHCG (ECHCG [4]; [17]): 90%
8 | Cn1cc(C(=O)N2CCCC2Cc2ccccc2F)c(COc2ccccc2)n1 (racemic) [Example I-006] |  |  | 100 | 90 | 100 | 10 |  |  |  | 90 | 100 |  | 100 | 0 | 10 |  | 90 | 
9 | COCc1c(C(=O)N2CCCC2Cc2ccccc2F)cnn1C (single isomer, unassigned) [Example I-157] | 80 |  | 100 | 100 | 100 | 0 |  | 0 | 90 | 90 |  |  | 90 | 0 | 0 |  | 100 | pre-emergence activity against DIGSA (DIGSA [2]; [19]): 100%
